Earlier results in paper PMC8778659 (Bioconjugate Chemistry, 2021).

Tested on: LNCaP xenografts
Settings: 1 h p.i. ref 29

specific tumor uptake: 11.7 ± 4.2 %ID/g
Compound: O=C(O)CC[C@H](NC(=O)N[C@@H](CCCCNC(=O)c1ccc(-c2cn(CCOCCOCC[18F])nn2)cc1)C(=O)O)C(=O)O [[18F]PSMA-MIC01]
